Measured values reported in ChEMBL document CHEMBL5226294, “Natural bioeffective cyclooligopeptides from plant seeds of Annona genus” (Eur J Med Chem, 2021).
pIC50: −log10 of the molar value. Converted amounts (≈) assume the structure as drawn. Where a SMILES comes first, the peptide text is derived from it. [ ]: non-standard residue; d: D form. Met(O) = CS(=O)CC[C@H](N)C(=O)O; Dab = NCC[C@H](N)C(=O)O

How the values were obtained:
KB [1] = assay: Cytotoxicity against human KB cells assessed as reduction in cell viability; format: functional, cell-based
KB [2] = assay: Cytotoxicity against human KB cells assessed as reduction in cell viability incubated for 3 days; format: functional, cell-based; details: 72 h
[3] = Cytotoxicity against mouse DLA cell assessed as reduction in cell viability; format: toxicity, cell-based; details: DLA cells
[4] = Cytotoxicity against mouse EAC cell assessed as reduction in cell viability; format: toxicity, cell-based; details: EAC (Ehrlich) cells
[5] = system: Trichophyton mentagrophytes; assay: Antimicrobial activity against Trichophyton mentagrophytes MUMC 665 assessed as inhibition of microbial growth by disk diffusion method; format: functional
Microsporum audouinii [6] = assay: Antimicrobial activity against Microsporum audouinii MUMC 545 assessed as inhibition of microbial growth by disk diffusion method; format: functional
DU-145 = assay: Cytotoxicity against human DU-145 cells assessed as inhibition of cell growth incubated for 72 hrs by XTT assay; format: functional, cell-based; details: DU-145, 72 h
Pseudomonas aeruginosa [7] = assay: Antibacterial activity against Pseudomonas aeruginosa assessed as inhibition of bacterial growth incubated for 18 hrs by disc diffusion method; format: functional
Klebsiella pneumoniae = assay: Antibacterial activity against Klebsiella pneumoniae assessed as inhibition of bacterial growth incubated for 18 hrs by disc diffusion method; format: functional
[8] = system: Trichophyton mentagrophytes; assay: Antifungal activity against Trichophyton mentagrophytes assessed as inhibition of fungal growth incubated for 48 hrs by serial plate dilution method; format: functional
Microsporum audouinii [9] = assay: Antifungal activity against Microsporum audouinii assessed as inhibition of fungal growth incubated for 48 hrs by serial plate dilution method; format: functional
Pseudomonas aeruginosa [10] = assay: Antibacterial activity against Pseudomonas aeruginosa MUMC 266 assessed as inhibition of bacterial growth incubated for 18 hrs by disk diffusion method; format: functional
Escherichia coli [11] = assay: Antibacterial activity against Escherichia coli MUMC 106 assessed as inhibition of bacterial growth incubated for 18 hrs by disk diffusion method; format: functional
Candida albicans [12] = assay: Antifungal activity against Candida albicans MUMC 29 assessed as inhibition of fungal growth incubated for 48 hrs by disk diffusion method; format: functional
[13] = Cytotoxicity against mouse DLA cell assessed as reduction in cell viability incubated for 3 hrs by tryphan blue dye based assay; format: toxicity; details: DLA cells
[14] = Cytotoxicity against mouse EAC cell assessed as reduction in cell viability incubated for 3 hrs by tryphan blue dye based assay; format: toxicity; details: EAC (Ehrlich) cells
Candida albicans [15] = assay: Antifungal activity against Candida albicans MUMC 29 assessed as increase in inhibition of fungal growth incubated for 48 hrs by disk diffusion method relative to griseofulvin; format: functional; design: scale not given: the % may be the effect or the level left
Pseudomonas aeruginosa [16] = assay: Antibacterial activity against Pseudomonas aeruginosa MUMC 266 assessed as increase in inhibition of bacterial growth incubated for 18 hrs by disk diffusion method relative to ciprofloxacin; format: functional; design: scale not given: the % may be the effect or the level left
Escherichia coli [17] = assay: Antibacterial activity against Escherichia coli MUMC 106 assessed as increase in inhibition of bacterial growth incubated for 18 hrs by disk diffusion method relative to ciprofloxacin; format: functional; design: scale not given: the % may be the effect or the level left
KB [18] = assay: Cytotoxicity against human KB cells assessed as inhibition of cell growth at 6.25 to 100 uM incubated for 72 hrs by MTT assay; format: functional; design: scale not given: the % may be the effect or the level left; details: dose 6.25-100 µM
HL-60 = assay: Cytotoxicity against human HL-60 cells assessed as inhibition of cell growth at 6.25 to 100 uM incubated for 72 hrs by MTT assay; format: functional; design: scale not given: the % may be the effect or the level left; details: dose 6.25-100 µM

CC[C@H](C)[C@@H]1NC(=O)CNC(=O)[C@H](CCSC)NC(=O)CNC(=O)[C@@H]2CCCN2C(=O)[C@H](CC(C)C)NC(=O)[C@H](Cc2ccc(O)cc2)NC1=O (cyclo(GIYLPGM))
pIC50 (KB [1]): 4.78
pIC50 (KB [2]): 4.78

CC(C)C[C@@H]1NC(=O)[C@H](C(C)C)NC(=O)[C@H](C(C)C)NC(=O)CNC(=O)[C@H](C)NC(=O)CNC(=O)[C@@H]2CCCN2C1=O (cyclo(AGVVLPG))
pIC50 (KB [1]): 6.14

CC(C)C[C@@H]1NC(=O)[C@H](Cc2c[nH]c3ccccc23)NC(=O)[C@H](C)NC(=O)[C@H](CC(N)=O)NC(=O)[C@@H]2CCCN2C(=O)[C@H]([C@@H](C)O)NC(=O)CNC1=O (cyclo(AWLGTPN))
CC50 [3]: 11.6 µM
CC50 [4]: 14.1 µM
MIC [5]: 6 µg/mL
MIC (Microsporum audouinii [6]): 6 µg/mL

COc1cccc2c1C(=O)c1c(O)c3c(c(O)c1C2=O)C[C@@](O)(C(=O)CO)C[C@@H]3O[C@H]1C[C@H](N)[C@H](O)[C@H](C)O1 [DOXORUBICIN]
pIC50 (KB [1]): 7.70
pIC50 (DU-145): 5.96

CC[C@H](C)[C@@H]1NC(=O)[C@@H]2CCCN2C(=O)[C@H](CC(C)C)NC(=O)[C@H](CCSC)NC(=O)CNC(=O)[C@H]([C@@H](C)O)NC(=O)[C@H](CCC(N)=O)NC(=O)[C@@H]2CCCN2C1=O (cyclo(GMLPIPQT))
pIC50 (KB [1]): 6.22

CC(C)C[C@@H]1NC(=O)CNC(=O)[C@@H]2CCCN2C(=O)[C@H](CC(N)=O)NC(=O)[C@H](C)NC(=O)[C@H](Cc2ccc(O)cc2)NC(=O)[C@@H]2CCCN2C1=O [CYCLOMONTANIN D] (cyclo(ANPGLPY))
MIC (Pseudomonas aeruginosa [7]): 6 µg/mL (≈ 8.42 µM)
MIC (Klebsiella pneumoniae): 6 µg/mL (≈ 8.42 µM)
MIC [8]: 6 µg/mL (≈ 8.42 µM)
MIC (Microsporum audouinii [9]): 6 µg/mL (≈ 8.42 µM)

CC(C)C[C@@H]1NC(=O)CNC(=O)[C@H](Cc2ccccc2)NC(=O)[C@H](Cc2ccc(O)cc2)NC(=O)[C@@H]2CCCN2C(=O)CNC1=O [Cherimolacyclopeptide E] (cyclo(FGLGPY))
pIC50 (KB [2]): 7.77
MIC (Pseudomonas aeruginosa [10]): 6 µg/mL (≈ 9.45 µM)
MIC (Escherichia coli [11]): 12.5 µg/mL (≈ 19.7 µM)
MIC (Candida albicans [12]): 6 µg/mL (≈ 9.45 µM)
CC50 at 3 h [13]: 2.76 µM
CC50 at 3 h [14]: 4.96 µM
Activity (Candida albicans [15]): 25%
Activity (Pseudomonas aeruginosa [16]): 12%
Activity (Escherichia coli [17]): 12%

CC[C@H](C)[C@@H]1NC(=O)[C@@H]2CCCN2C(=O)[C@H](C(C)C)NC(=O)[C@H](C)NC(=O)CNC(=O)[C@@H]2CCCN2C(=O)[C@H](C)NC(=O)[C@H](Cc2ccc(O)cc2)NC1=O (cyclo(APGAVPIY))
pIC50 (KB [1]): 6.28
pIC50 (KB [2]): 6.28
CC50 at 3 h [13]: 6.72 µM
CC50 at 3 h [14]: 11.9 µM

CC[C@H](C)[C@@H]1NC(=O)CNC(=O)[C@H](CCSC)NC(=O)CNC(=O)[C@@H]2CCCN2C(=O)[C@H](CCSC)NC(=O)[C@@H]2CCCN2C(=O)[C@H](CC(C)C)NC(=O)[C@H](Cc2ccc(O)cc2)NC1=O (cyclo(GIYLPMPGM))
pIC50 (KB [2]): 7.22

CC(C)C[C@@H]1NC(=O)CNC(=O)[C@@H]2CCCN2C(=O)[C@H]([C@@H](C)O)NC(=O)[C@H](C(C)C)NC(=O)[C@H](C)NC(=O)[C@H](CC(N)=O)NC1=O
pIC50 (KB [1]): 6.01

CC[C@H](C)[C@@H]1NC(=O)[C@H](C)NC(=O)[C@H](C(C)C)NC(=O)[C@H]([C@@H](C)O)NC(=O)CNC(=O)[C@H](Cc2ccc(O)cc2)NC(=O)[C@H](CO)NC(=O)[C@H](CCN)NC(=O)[C@@H]2CCCN2C1=O (cyclo(AIP[Dab]SYGTV))
pIC50 (DU-145): 4.56

CC[C@H](C)[C@@H]1NC(=O)[C@@H]2CCCN2C(=O)CNC(=O)[C@H](C)NC(=O)[C@H](Cc2ccc(O)cc2)NC1=O (cyclo(AGPIY))
Activity (KB [18]): <30%
Activity (HL-60): <30%

CC(C)C[C@@H]1NC(=O)CNC(=O)[C@@H]2CCCN2C(=O)[C@H]([C@@H](C)O)NC(=O)[C@H](C(C)C)NC(=O)[C@H](C)NC(=O)[C@H](CO)NC1=O
pIC50 (DU-145): 4.26

CC(C)C[C@@H]1NC(=O)[C@H](Cc2ccc(O)cc2)NC(=O)[C@@H]2CCCN2C(=O)[C@@H]2CCCN2C(=O)[C@H](C(C)C)NC(=O)CNC(=O)[C@@H]2CCCN2C1=O (cyclo(GVPPYLP))
Activity (KB [18]): <30%
Activity (HL-60): <30%

O=c1[nH]cc(F)c(=O)[nH]1 [FLUOROURACIL]
CC50 at 3 h [13]: 37.4 µM
CC50 at 3 h [14]: 37.4 µM

CC[C@H](C)[C@@H]1NC(=O)[C@@H]2CCCN2C(=O)[C@H](CC(C)C)NC(=O)[C@H](CC[S+](C)[O-])NC(=O)CNC(=O)[C@H]([C@@H](C)O)NC(=O)[C@H](CCC(N)=O)NC(=O)[C@@H]2CCCN2C1=O (stereo partly drawn) (cyclo(G[Met(O)]LPIPQT))
pIC50 (KB [1]): 4.35
